Assay results reported in publication PMC4467147, “Identification of epipolythiodioxopiperazines HDN-1 and chaetocin as novel inhibitor of heat shock protein 90” (Oncotarget, 2015).
Read-outs that look alike come from different tables or passages of the source.

Assays:
H1975 cells [1] = experiment: Drug combination study HDN-1 and 17-AAG, MTT assay, H1975; format: cell-based, human; conditions: H1975, 72 h
Procedure: (§1) A modified tetrazolium salt assay was used to measure the inhibition of cancer cell growth. Cancer cells were plated into a 96-well microtiter plate containing 0.1 ml of growth media/well for 24 h, then were incubated with HDN-1 at indicated concentrations dissolved in DMSO for 72 h. 3-(4,5-Dimethylthiazol-2-yl)-2,5- diphenyltetrazoliumbromide (MTT) was added to each well of a 96-well plate. After 4 h incubation, the formazan product was dissolved and quantitated spectrophotometrically at a wavelength of 560 nm. Percent viability of each sample was calculated from the A560 values as follows: % viability = (A560 nm sample / A560 nm DMSO-treated cells × 100). The IC50 was defined as the concentration that gave rise to 50% inhibition of cell viability.
H1975 cell were seeded in triplicate in 96-well plates and treated with HDN-1 or 17-AAG alone or with the combination of HDN-1 and 17-AAG at the indicated doses. MTT assays were performed after 72 h of treatment. The Q (value) was calculated according to Jin's formula: Q = Ea+b/(Ea+Eb−Ea × Eb). Ea+b represented the inhibition rate of drug combination, Ea and Eb represented the inhibition rate of drug A and B alone, respectively. Q (value) = 0.85–1.15 stands for additivity, Q (value) > 1.15–2.0 stands for synergism, and Q (value) < 0.85–0.55 stands for antagonism.

full length Hsp90α = molecular target: T1, full length Hsp90α (Homo sapiens, UniProt P07900); experiment: SPR binding to full-length Hsp90α immobilized on sensor chip; conditions: 25°C, 1:1 Langmuir model, read-out: dissociation constant (Kd) for full-length Hsp90α
T1 construct: For full length Hsp90α, Hsp90α was coupled to the surface of a GLH sensor chip using amine coupling
Procedure: (§2) SPR analysis was carried out with a ProteOn XPR36 instrument (Bio-Rad) or ForteBio's Octet RED96 to determine binding of various molecules to full length Hsp90α or C-terminal Hsp90α. For full length Hsp90α, Hsp90α was coupled to the surface of a GLH sensor chip using amine coupling. The coupling has been performed according to the manufacturer's instructions. Binding experiments were performed with multiple concentrations of HDN-1 and chaetocin running over the surface of the chip at 25°C, at a constant flow rate of 30 μl/min in PBS-T (10 mM Phosphate, 150 mM NaCl, pH 7.4 and 0.005% Tween20 [v/v]). The sensor chip surface was regenerated using 0.85% H3PO4. Changes in mass due to the binding response were recorded as resonance units (RU). To obtain the dissociation constant (Kd), these responses were fit to a 1:1 Langmuir binding model by nonlinear regression using the BiaEvaluation 4.1 software program. For interplay of HDN-1 with other molecules, 50 μM 17-AAG, 50 μM novobiocin, or 100 μM ATP was injected into Hsp90α-immobilized chip and the RU values were recorded in succession for indicated time, then these compounds were replaced by 50 μM HDN-1, and RU values were recorded unceasingly. Similar experiments were conversely performed and RU values were recorded. […] Binding of samples (31.25–500 μM) to coated and uncoated reference sensors was measured over 60 s. […]

Hsp90 client proteins = experiment: Western blotting of Hsp90 client proteins and Hsp70 in NSCLC cells; format: cell-based, human; conditions: for effect on level of SUV39H1: 24 h; for effect on Hsp90 client protein levels (EGFR, Akt, Cyclin D1 etc.): NSCLC cells
Procedure: Cells were incubated with HDN-1 at indicated concentrations and time, then washed with PBS twice, disrupted on ice for 30 min in loading buffer, and boiled for 10 min. Protein concentration was determined with BCA reagent. Equal amounts of protein in cell lysates were separated by SDS-PAGE, transferred to membranes, immunoblotted with indicated primary and secondary antibodies, and detected by chemiluminescence with the enhanced chemiluminescence detection reagents (PIERCE). The antibodies of following proteins were used: EGFR, phosphorylated EGFR (Tyr1068), Akt, phosphorylated Akt (Ser473), MAPK, phosphorylated MAPK (Thr202/Tyr204), ubiquitin, Hsp70, β-Actin; Abl, Stat3, phosphorylated Stat3 (Ser727), Raf-1, cyclin D1. For immunoprecipitation assay, cell lysate protein was incubated overnight at 4°C with the designated antibody and protein G-Sepharose (Amersham Biosciences) was added overnight while rocking. Precipitates were washed three times with lysis buffer and once with PBS, resuspended in 2 × loading buffer, and resolved by SDS-PAGE followed by immunoblot analysis.

[2] = molecular target: C-terminus of ATP binding site (660–680 aa) of Hsp90α; parameters: method as in PMID 11751878; conditions: read-out: binding affinity to C-terminus of ATP binding site of Hsp90α; cited from earlier work
H1975 cells [3] = experiment: MTT cell viability assay, H1975; format: cell-based; conditions: Homo sapiens, NCI-H1975, H1975, 72 h, read-out: IC50 cell proliferation
Procedure: as §1

Hsp90α = molecular target: T2, Hsp90α (Homo sapiens, UniProt P07900); experiment: Fluorescence polarization competitive assay, displacement of FITC-GA from Hsp90α; conditions: 200 nM FITC-GA, 30 nM Hsp90α; read-out: IC50, effect on the binding of GA to Hsp90
T2 construct: For full length Hsp90α, Hsp90α was coupled to the surface of a GLH sensor chip using amine coupling
Procedure: Fluorescence polarization assays were performed under the following conditions: each 96-well plate contained 200 nM FITC-GA, Hsp90α (30 nM), and tested inhibitor (initial stock in DMSO) in a final volume of 100 μl. For each assay, background wells (buffer only), tracer controls (free, FITC-GA only), and bound GA controls (fluorescent GA in the presence of Hsp90) were included on each assay plate. The fraction of tracer bound to Hsp90 was correlated to the mP value and plotted against log10 values of competitor concentrations. The HDN-1 and 17-AAG concentrations at which 50% of bound GA was displaced was obtained by fitting the data. Fluorescence intensity measurements were obtained using a SpectraMax M5 (Molecular Devices, Sunnyvale, CA). The excitation and emission wavelengths were 485 nm and 530 nm, respectively.

Hsp90α ATPase = Hsp90α ATPase (Homo sapiens, UniProt P07900); experiment: Hsp90α ATPase activity; format: biochemical; conditions: data not shown
HCC827 cells = experiment: MTT cell viability assay, HCC827; format: cell-based, human; conditions: HCC827, 72 h, read-out: IC50 cell proliferation
Procedure: as §1

[4] = molecular target: T3, C-terminal Hsp90 fragment (535–732aa) of human Hsp90α (Homo sapiens, UniProt P07900); experiment: ForteBio Octet binding to biotinylated C-terminal Hsp90α; conditions: Octet RED96, read-out: Kd for C-terminus of Hsp90α
T3 construct: recombinant C-terminal Hsp90 fragment (535–732aa) of human Hsp90α
Procedure: as §2

A549 cells = experiment: MTT cell viability assay, A549; format: cell-based, human; conditions: A549, 72 h, read-out: IC50 cell proliferation
Procedure: as §1

With `C=CCNC1=C2C[C@@H](C)C[C@H](OC)[C@H](O)[C@@H](C)/C=C(\C)[C@H](OC(N)=O)[C@@H](OC)/C=C\C=C(/C)C(=O)NC(=CC1=O)C2=O` [17-AAG] the “Inhibition Rate Mean” value (H1975 cells [1]; single agent 100 nM) was 0.070, the “Inhibition Rate Mean” value (H1975 cells [1]; single agent 200 nM) was 0.267 and the “Inhibition Rate Mean” value (H1975 cells [1]; single agent 300 nM) was 0.393.

For `CN1C(=O)[C@@]23C[C@]4([C@]56C[C@@]78SS[C@@](CO)(C(=O)N7[C@H]5Nc5ccccc56)N(C)C8=O)c5ccccc5N[C@@H]4N2C(=O)[C@]1(CO)SS3` [chaetocin], the Kd (full length Hsp90α) was 16.8 µM, the “effect on level of SUV39H1” value (Hsp90 client proteins; Western blotting) was “decline” and the “effect on Hsp90 client protein levels (EGFR, Akt, Cyclin D1 etc.)” value (Hsp90 client proteins; Western blotting) was “degraded client proteins”.

For `CO[C@@H]1[C@@H](OC(N)=O)[C@@H](O)[C@H](Oc2ccc3c(O)c(NC(=O)c4ccc(O)c(CC=C(C)C)c4)c(=O)oc3c2C)OC1(C)C` [Novobiocin], the Kd [2] is given as about 3300 µM.

In the case of `CN1C(=O)[C@]23SSS[C@@]1(CO)C(=O)N2[C@H]1Nc2ccccc2C1(C12c4ccccc4N[C@@H]1N1C(=O)[C@]4(CO)SS[C@]1(C(=O)N4C)[C@H]2O)[C@@H]3O` (stereo partly shown) [HDN-1], the IC50 (H1975 cells [3]) is reported as 0.22 µM, the Kd (full length Hsp90α) is reported as 14.6 µM and the IC50 (Hsp90α) is reported as over 10 µM. The “effect on Hsp90α ATPase activity” value (Hsp90α ATPase) was “no effect”, the “effect on level of SUV39H1” value (Hsp90 client proteins; Western blotting) was “decline” and the “effect on Hsp70 expression” value (Hsp90 client proteins; H1975, HCC827, A549 cells, Western blotting) was “did not obviously affect”. The “effect on HIF-1α” value (Hsp90 client proteins; H1975 and A549 cells, CoCl2-induced hypoxia or 5% CO2 and 2% O2) was “degraded”, the “effect on Hsp90 client protein levels (EGFR, Akt, Cyclin D1 etc.)” value (Hsp90 client proteins; Western blotting) was “reduced the expression levels” and the inhibition at 0.1 µM (H1975 cells [1]; Homo sapiens, NCI-H1975, single agent 100 nM, read-out: Inhibition Rate Mean) was 5.1%. It also gave an inhibition at 0.2 µM (H1975 cells [1]; Homo sapiens, NCI-H1975, single agent 200 nM, read-out: Inhibition Rate Mean) of 37.1%, an IC50 (HCC827 cells) of 1.06 µM and an IC50 (HCC827 cells; Homo sapiens) of 0.54 µM. The Kd [4] was 201 µM, the IC50 (A549 cells) was 0.54 µM and the IC50 (A549 cells; Homo sapiens) was 1.06 µM.
